In a melting point compilation (Tetko et al.):

SMILES	melting point [°C]
O=C(O)/C=C/c1cn(-c2ccccc2)nc1-c1ccc(Cl)s1	200 to 202
Cc1ccc(NC(=O)CO)c(Cl)c1	90 to 92
Cc1ccc(-n2nnc(C(=O)O)c2C(C)C)cc1	176 to 178
C#CCn1c(C)nc2ccccc21	67 to 69
CCOC(=O)c1ccc2nc(CCC(=O)O)c(=O)n(CC)c2c1	181 to 185
O=C(O)c1cc(-c2ccc(Cl)cc2)nn1-c1ccccc1	214 to 216
O=C(CCl)Nc1cccc(C(=O)O)c1	220 to 222
COC(=O)c1snc(-c2ccccc2)c1N	114 to 116
Cc1ccc(NC(=O)C2(CN)CCCC2)cc1C	113 to 115
CC(Oc1ccc(Br)cc1)C(=O)O (configuration not stated)	118 to 120
O=C(O)c1ccc(OC2CCCCC2)cc1	184 to 186
O=C1NCCCN2CCCC12 (configuration not stated)	120 to 122
CN1CC(=O)NC(=O)C1	99 to 101
COC(=O)c1ccc(N)cc1C	69 to 71
CC(C)(c1cc(N)on1)S(C)(=O)=O	179 to 181
N#Cc1c(CCCN)n[nH]c1N	169 to 171
Cc1ccccc1-c1nonc1N	88 to 90
Cc1ccc(-n2c(S)nc3ccccc32)c(C)c1	192 to 194
O=C(O)c1cc(OCC2CC2)c2ccccc2n1	164 to 166
Cc1cnoc1N	59 to 61
CN1CC(=O)N(c2ccc([N+](=O)[O-])cc2)C1=O	161 to 163
Cc1cc(Br)cn2c(CO)cnc12	174 to 176
Clc1ccc2nncn2n1	213 to 215
Cc1nc(S)c2c(C)c(C)sc2n1	193 to 195

SMILES	melting point [°C]
Nc1nccc(-c2ccccc2)n1	162 to 164
CNS(=O)(=O)c1ccc(Br)s1	59 to 61
O=S(=O)(Cl)c1ccc(Cl)cc1C(F)(F)F	45 to 47
O=C(O)c1nnn(-c2ccccc2F)c1C(F)(F)F	133 to 135
CCOC(=O)c1c(N)c(C#N)cn1CCOC	99 to 101
O=C(O)C1CCN(c2ccccc2[N+](=O)[O-])CC1	158 to 160
NCc1ccc(-n2cncn2)cc1Cl	111 to 113
N#CCc1nc(-c2ccccc2)n[nH]1	165 to 167
CC(=O)NCc1ccc(-c2csc(N)n2)s1	221 to 223
O=C(Cc1nc2ccccc2[nH]1)c1ccccc1	180 to 182
Cc1ccc(C)c(N2C(=O)C=CC2=O)c1	79 to 81
O=C(c1c[nH]c2ccccc12)C(Cl)c1ccccc1 (configuration not stated)	124 to 126
CC(Oc1ccc(Cl)c(Cl)c1)C(=O)O (configuration not stated)	125 to 127
O=C(O)c1c[nH]c(C(=O)N2CCCC2)c1	264 to 266
CCOc1cc2nccc(Cl)c2cc1OCC	72 to 74
Nc1cccc(N2C(=O)CC3(CCCC3)C2=O)c1	136 to 138
N#CCC(=O)c1ccc(C(F)(F)F)cc1	48 to 50
NCC(O)c1ccc(F)cc1 (configuration not stated)	65 to 67
C[C@H](NC(=O)C1CCCCC1)C(=O)O	127 to 129
O=C1NC(=O)C2(CN3CCC2CC3)N1 (configuration not stated)	298 to 300
O=C(c1ccc(Cl)nc1)N1CCc2ccccc21	132 to 134
CC(C)N1C2CCC1CC(C(=O)O)C2 (configuration not stated)	223 to 225
Nc1ccc(CCN2CCCCC2)cc1	54 to 56
CS(=O)(=O)N1CCNC(=O)C1	164 to 166

SMILES	melting point [°C]
FC(F)(F)c1ccnc(N2CCNCC2)n1	49 to 51
O=C(O)C1=COCCC1	71 to 73
N#Cc1cc2c(nc1N)CCC2	205 to 207
Cc1cc(C(=O)CCl)c(C)cc1Br	79 to 81
Cc1n[nH]c(-c2ccc(Cl)c(Cl)c2)n1	200 to 202
O=C1CCCN1c1ccc(O)cc1	159 to 161
Cc1cc(OC(C)C(=O)O)ccc1C(C)C (configuration not stated)	92 to 94
Fc1c(Cl)ccc2c(Cl)ccnc12	129 to 131
Oc1ccc(-c2ccc(F)cc2)nn1	269 to 271
Cc1ccc(O)c(C(=O)N2CCSCC2)c1	155 to 157
Cc1noc(-c2ccc([N+](=O)[O-])c(C)c2)n1	132 to 134
CC1CCCC(C)N1S(=O)(=O)c1ccc(N)cc1 (configuration not stated)	215 to 217
Cn1cncc1C#N	48 to 50
CCC(CO)N1CCNCC1 (configuration not stated)	78 to 80
O=S(=O)(Cl)c1ccc(-n2cccn2)c(F)c1	104 to 106
COc1ccc(-n2ccnc2S)c(C)c1	238 to 240
COc1ccc(C(=O)N2CCCCCC2)cc1N	133 to 135
Nc1ccc(S(=O)(=O)C(F)(F)F)cc1N	109 to 111
O=C(CN1C(=O)CCC1=O)c1ccccc1Cl	118 to 120
Cn1nc(C(=O)O)cc1-c1ccc2c(c1)OCO2	214 to 216
Cc1cccc(S(N)(=O)=O)n1	165 to 167
O=C(O)C(=O)NNc1ccc(Cl)cc1Cl	169 to 171
Cc1ccc(C(=O)O)cc1NS(=O)(=O)c1ccc(F)cc1	234 to 236
OCc1cn(-c2ccccc2Cl)nn1	87 to 89
